According to PMC8336721 (ACS chemical neuroscience, 2020):
Several values for one entry are separate records, joined by “and”; a condition that tells them apart may be missing. Identical values can stand only once. Like-named read-outs stand apart in the source and are kept apart here.

What was measured:
[1] = system: mice; assay: Conditioned place aversion
[2] = biological target: T1, KOR (Homo sapiens, UniProt P41145); assay: GloSensor cAMP assay; assay type: cell-based; details: for more potent than U50,488H, inhibition of cAMP accumulation: EC50 ratio vs U50,488H
T1 sequence (P41145 whole entry): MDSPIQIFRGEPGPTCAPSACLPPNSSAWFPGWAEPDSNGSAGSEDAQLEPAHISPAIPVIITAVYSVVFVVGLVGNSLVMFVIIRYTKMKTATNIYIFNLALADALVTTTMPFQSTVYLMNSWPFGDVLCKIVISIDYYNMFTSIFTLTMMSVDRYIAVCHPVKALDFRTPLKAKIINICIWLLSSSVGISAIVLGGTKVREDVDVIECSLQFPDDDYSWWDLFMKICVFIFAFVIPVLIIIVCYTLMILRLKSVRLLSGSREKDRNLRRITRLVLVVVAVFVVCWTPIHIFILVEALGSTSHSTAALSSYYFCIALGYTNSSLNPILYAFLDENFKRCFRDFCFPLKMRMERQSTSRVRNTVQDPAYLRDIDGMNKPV

[3] = system: mice; assay: Formalin test; assay type: in vivo; details: s.c. 5 min before formalin, licking time phase II
[4] = biological target: T1, KOR; assay: [35S]GTPγS binding to membranes of CHO cells stably expressing the KOR; assay type: biochemical; details: for Maximal Effect, KOR: % of maximal [35S]GTPγS binding of reference full agonist (−)U50,488H
[5] = biological target: NOR (Homo sapiens, UniProt P41146); assay: [35S]GTPγS binding to membranes of CHO cells stably expressing the NOR; assay type: biochemical; details: for agonist type at the NOR: [35S]GTPγS binding, relatively low potency
Sequence of NOR (P41146 whole entry): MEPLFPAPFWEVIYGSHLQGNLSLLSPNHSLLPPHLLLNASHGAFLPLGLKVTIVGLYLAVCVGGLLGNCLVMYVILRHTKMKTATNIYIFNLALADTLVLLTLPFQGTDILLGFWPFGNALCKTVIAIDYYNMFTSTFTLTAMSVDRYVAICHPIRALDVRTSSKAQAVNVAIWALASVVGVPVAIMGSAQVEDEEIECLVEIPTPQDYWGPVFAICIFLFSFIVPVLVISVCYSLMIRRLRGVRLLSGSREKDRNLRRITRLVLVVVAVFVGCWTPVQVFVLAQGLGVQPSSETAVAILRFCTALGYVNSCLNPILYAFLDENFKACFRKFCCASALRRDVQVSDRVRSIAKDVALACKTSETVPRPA

[6] = biological target: T1, KOR; assay: Tango assay; assay type: cell-based
[7] = biological target: DOR (Mus musculus, UniProt P32300); assay: [35S]GTPγS binding to membranes of CHO cells stably expressing the DOR; assay type: biochemical; details: for agonist type at the DOR: [35S]GTPγS binding, relatively low potency
Sequence of DOR (P32300 whole entry): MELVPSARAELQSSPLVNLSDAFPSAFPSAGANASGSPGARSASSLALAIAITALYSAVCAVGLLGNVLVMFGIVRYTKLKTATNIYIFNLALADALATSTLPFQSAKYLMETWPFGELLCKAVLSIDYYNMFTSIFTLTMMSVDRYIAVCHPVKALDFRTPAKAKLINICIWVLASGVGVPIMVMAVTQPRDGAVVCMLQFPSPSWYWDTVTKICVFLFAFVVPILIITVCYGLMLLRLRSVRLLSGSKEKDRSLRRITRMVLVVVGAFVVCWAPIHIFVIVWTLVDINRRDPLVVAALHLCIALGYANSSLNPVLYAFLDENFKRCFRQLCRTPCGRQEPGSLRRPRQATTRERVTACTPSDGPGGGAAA

[8] = system: mice; assay: Novelty-induced locomotor activity; assay type: in vivo; details: 1, 3, 5 mg/kg s.c., 0–30 min post-injection
[9] = biological target: MOR (Rattus norvegicus, UniProt P33535); assay: [35S]GTPγS binding to membranes of CHO cells stably expressing the MOR; assay type: biochemical; details: for Maximal Effect, MOR: % of maximal [35S]GTPγS binding of reference full agonist DAMGO; for agonist type at the MOR: [35S]GTPγS binding
Sequence of MOR (P33535 whole entry): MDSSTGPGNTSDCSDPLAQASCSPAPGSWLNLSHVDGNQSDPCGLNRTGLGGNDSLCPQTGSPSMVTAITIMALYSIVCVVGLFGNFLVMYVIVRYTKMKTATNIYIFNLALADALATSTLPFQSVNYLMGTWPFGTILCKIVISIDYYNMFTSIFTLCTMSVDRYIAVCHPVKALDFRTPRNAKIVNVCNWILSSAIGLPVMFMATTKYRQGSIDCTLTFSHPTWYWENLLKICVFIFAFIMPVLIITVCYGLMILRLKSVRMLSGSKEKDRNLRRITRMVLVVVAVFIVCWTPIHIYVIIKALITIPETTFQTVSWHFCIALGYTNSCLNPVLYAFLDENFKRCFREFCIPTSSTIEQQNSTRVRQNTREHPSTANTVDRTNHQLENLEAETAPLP

[10] = system: mice; assay: Compound 48/80 scratching test; assay type: in vivo
[11] = system: mice; assay: Rotarod test; assay type: in vivo
[12] = system: mouse; details: mouse tail flick test; cited from earlier work
[13] = system: mice; details: nalfurafine up to 20 μg/kg, U50,488 5 mg/kg; cited from earlier work
[14] = system: mice; details: cited from earlier work
[15] = system: mice; details: cited from earlier work; remark: listed apart in the source
[16] = system: mice; details: late phase of the formalin test; cited from earlier work
[17] = system: human KOR; assay: G protein bias from RAi of GloSensor cAMP and Tango assays; assay type: cell-based; details: RAi−G divided by RAi−b, U50,488H as balanced agonist
[18] = system: P-glycoprotein; details: cited from earlier work

Structure (SMILES): CN(C(=O)/C=C/c1ccoc1)[C@@H]1CC[C@@]2(O)[C@H]3Cc4cccc5c4[C@@]2(CCN3CC2CC2)[C@H]1O5 [42B]
- CPA ([1]; 1, 3, 5 mg/kg s.c., 6 days conditioning): did not cause CPA
- effect of MOR blockade by naloxone on lack of CPA ([1]; naloxone 1 mg/kg s.c. 25 min before 42B 3 mg/kg): did not affect its lack of CPA
- more potent than U50,488H, inhibition of cAMP accumulation [2]: ~ 2 fold
- GloSensor cAMP assay Emax ([2]; maximal degree of inhibition, mean ± SEM n=3): 74.40±1.68%
- EC50 ([2]; read-out: GloSensor cAMP assay EC50, inhibition of cAMP, mean ± SEM n=3): 0.82 ± 0.18 nM
- A50, formalin test [3]: 2.08 mg/kg
- Maximal Effect, KOR [4]: 91% and 91.34 ± 1.15%
- agonist type at the KOR ([4]; [35S]GTPγS binding): full agonists
- EC50 ([4]; read-out: EC50, KOR, [35S]GTPγS binding, CHO membranes, 100 mM NaCl, mean ± SEM n=3–4): 25.6 ± 1.5 nM
- agonist type at the NOR [5]: full agonism
- lower potency for β-arrestin recruitment than U50,488H ([6]; EC50 ratio vs U50,488H): ~ 2 fold
- lower potency for β-arrestin recruitment than nalfurafine ([6]; EC50 ratio vs nalfurafine): ~ 4 fold
- EC50 ([6]; read-out: Tango assay EC50, β-arrestin2 recruitment, mean ± SEM n=3): 3.22 ± 0.42 nM
- Tango assay Emax ([6]; β-arrestin2 recruitment, mean ± SEM n=3, % printed in b16 only): 116.8±1.0 %
- Maximal Effect, DOR ([7]; % of maximal [35S]GTPγS binding of reference full agonist DPDPE): 134.7 ± 3.4%
- agonist type at the DOR [7]: full agonism
- novelty-induced hyperlocomotion [8]: significant and dose-dependent reduction
- Maximal Effect, MOR [9]: 49% and 48.87 ± 2.45%
- agonist type at the MOR [9]: partial agonists
- effect of norBNI pretreatment on anti-scratch activity ([10]; norBNI 20 mg/kg i.p. 20 h before 42B 3 mg/kg): eliminated the anti-scratch activity
- A50, compound 48/80-induced scratching ([10]; s.c. 20 min before compound 48/80, bouts counted 30 min, mice): 2.82 mg/kg
- rotarod performance at 1 mg/kg ([11]; 1 mg/kg, at 10 min): significant effect
- rotarod performance ([11]; 1, 3, 5 mg/kg s.c., tested 10, 20, 30, 40 min): dose-dependently caused performance impairment
- time of peak effect in rotarod test ([11]; among time points tested 10–40 min): 10 min
- time of return to control level in rotarod test ([11]; mouse, in vivo): 40 min

Structure (SMILES): C=CCN1CC[C@]23c4c5ccc(O)c4O[C@H]2C(=O)CC[C@@]3(O)[C@H]1C5 [naloxone]
- CPA or CPP in the naloxone experiment ([1]; naloxone 1 mg/kg alone, U50,488 5 mg/kg as positive control): Neither naloxone (1 mg/kg) alone nor a combination of naloxone (1 mg/kg) and 42B (3 mg/kg) caused CPA or CPP
- more potent in antagonizing morphine- than U50,488- or spiradoline-induced antinociception [12]: 20–36 times

Structure (SMILES): CN(C(=O)/C=C/c1ccoc1)[C@@H]1CC[C@@]2(O)[C@H]3Cc4ccc(O)c5c4[C@@]2(CCN3CC2CC2)[C@H]1O5 [Nalfurafine]
- more potent than U50,488H, inhibition of cAMP accumulation [2]: ~ 9 fold
- Emax ([2]; HEK-293T, read-out: GloSensor cAMP assay Emax): 69.8 ± 1.53%
- more potent than 42B in inhibition of forskolin-stimulated adenylyl cyclase (Glosensor assay) ([2]; nalfurafine vs 42B): ~ 5 X
- CPA [13]: did not produce CPA
- rotarod performance ([14]; 20 μg/kg, at 30 min and 40 min following injection): small, yet significant, effects
- time of peak effect in rotarod test ([14]; slight lowering effect): 30 min
- Maximal Effect, KOR [4]: 90.90 ± 3.25%
- agonist type at the KOR ([4]; [35S]GTPγS binding): full agonists
- potency at the KOR higher than that of 42B ([4]; [35S]GTPγS binding EC50 ratio, nalfurafine vs 42B): ~ 250 fold
- A50, compound 48/80-induced scratching [15]: 8.0 µg/kg
- EC50 [5]: 280 ± 17.7 nM
- agonist type at the NOR [5]: full agonism
- Emax ([5]; read-out: Maximal Effect, NOR): 120 ± 2.2%
- Emax ([6]; HEK293, read-out: Tango assay Emax): 108 ± 2.6%
- agonist type at the DOR [7]: full agonism
- Emax ([7]; read-out: Maximal Effect, DOR): 129 ± 3.2%
- A50, formalin test [16]: 5.8 µg/kg
- EC50 [9]: 3.11 ± 0.63 nM
- Maximal Effect, MOR [9]: 73.88 ± 2.93%
- agonist type at the MOR [9]: partial agonists
- more potent than 42B in the anti-scratch test ([10]; A50 ratio nalfurafine vs 42B): about 340 x
- G Biased factor (95% CI) [17]: 4.49 (1.79–11.1)
- G Biased factor (95% CI) ([17]; listed as nalfurafine): 4.49
- P-glycoprotein substrate [18]: P-glycoprotein substrate

Structure (SMILES): Oc1ccc2c3c1O[C@H]1c4[nH]c5c(c4C[C@@]4(O)[C@@H](C2)N(CC2CC2)CC[C@]314)C[C@@]1(O)[C@H]2Cc3ccc(O)c4c3[C@@]1(CCN2CC1CC1)[C@H]5O4 [norBNI, nor-binaltorphimine]
- effect on compound 48/80-induced scratching, alone ([10]; norBNI 20 mg/kg i.p. 20 h before saline): no effects
